According to patent US8034940B2, “Modulators of glucocorticoid receptor, AP-1, and/or NF-κB activity and use thereof” (Bristol-Myers Squibb Company, priority 2006, dated 2011):

System: AP-1 induced transcriptional activity
Assay: Cellular Transrepressional Assay (AP-1 luciferase reporter, PMA-activated A549 cells)
Assay type: cell-based
Conditions: for Emax: A549, 7 h, read-out: AP-1 Max % inh (Cellular Transrepression Assay); for Emax / AP-1 Max % inh (Cellular Transrepression Assay): maximum inhibition
Protocol: Cellular Transrepressional Assay
To measure the ability of test molecules to inhibit AP-1 induced transcriptional activity we utilized an A549 cell which was stably transfected with a plasmid containing 7× AP-1 DNA binding sites (pAP-1-Luc plasmid, Stratagene Co. La Jolla, Calif.) followed by the gene for luciferase. Cells were activated with 10 ng/ml of […] (PMA) plus or minus test molecules for 7 hours. After 7 hours a luciferase reagent was added to measure luciferase enzymatic activity in the cell. After a 10 minute incubation of luciferase reagent with cells, luminescence was measured in a TopCount luminescence counter. Repression of AP-1 activity was calculated as the percentage decrease in the signal induced by PMA alone. Test molecules were analyzed in the concentration range from 0.1 nM to 40 μM. EC50s were determined by using standard curve fitting methods such as Excel fit (Microsoft Co.).

[1] = Homo sapiens, Cellular Transrepression Assay
[2] = Homo sapiens, A549, Cellular Transrepression Assay

Row | Structure (SMILES) | Emax [1] [%] | EC50 [2] [nM] | EC50 (Cellular Transrepression Assay) [nM] | AP-1 Max % inh (Cellular Transrepression Assay) (Cellular Transrepression Assay) [%] | EC50 (Cellular Transrepression Assay, listed as 166^a) [nM]
1 | COc1ccc2c(c1)Oc1ccccc1C2C(C)(C)C(=O)Nc1nc(Cc2ccc(Br)cc2)cs1 (stereo not drawn) [Example 50] | 74.8 | 165 | – | – | –
2 | COc1ccc2c(c1)Oc1ccccc1C2C(C)(C)C(=O)Nc1nc(Cc2ccc(-c3ccncc3)cc2)cs1 (stereo not drawn) [Example 51] | 77.9 | 6.87 | – | – | –
3 | COc1ccc2c(c1)Oc1ccccc1C2C(C)(C)C(=O)Nc1nc(-c2cccc3ccccc23)cs1 (stereo not drawn) [Example 52] | 70.8 | 213 | – | – | –
4 | COc1ccc(Cc2csc(NC(=O)C(C)(C)C3c4ccccc4Oc4cc(OC)ccc43)n2)cc1 (stereo not drawn) [Example 53] | – | – | 78.5 | 72.00 | –
5 | COc1ccc2c(c1)Oc1ccccc1[C@H]2C(C)(C)C(=O)Nc1nc(Cc2ccc(-c3ccncc3)cc2)cs1 [Example 54] | 71.4 | 13.1 | – | – | –
6 | COc1ccc2c(c1)Oc1ccccc1[C@H]2C(C)(C)C(=O)Nc1nc(Cc2ccc(-c3cccnc3)cc2)cs1 [Example 55] | 75.5 | 21.5 | – | – | –
7 | COc1ccc(Cc2csc(NC(=O)C(C)(C)[C@H]3c4ccccc4Oc4cc(OC)ccc43)n2)cc1 [Example 57] | 74.8 | 11.5 | – | – | –
8 | COc1ccc2c(c1)Oc1ccccc1[C@@H]2C(C)(C)C(=O)Nc1nc(Cc2ccc(-c3ccncc3)cc2)cs1 [Example 58] | 70 | 3.71 | – | – | –
9 | COc1ccc2c(c1)Oc1ccccc1[C@@H]2C(C)(C)C(=O)Nc1nc(Cc2ccc(-c3cccnc3)cc2)cs1 [Example 59] | 58.4 | 11.8 | – | – | –
10 | CC(C)(C(=O)Nc1nc(-c2ccc(F)c3ccccc23)cs1)C1c2ccccc2Oc2ncccc21 (stereo not drawn) [Example 63] | 75.8 | – | – | – | –
11 | CC(C)(C(=O)Nc1nc(Cc2ccc(-c3ccncc3)cc2)cs1)C1c2ccccc2Oc2ncccc21 (stereo not drawn) [Example 64] | 79.3 | 19.9 | – | – | –
12 | CC(C)(C(=O)Nc1nncs1)C1c2ccccc2Oc2ncccc21 (stereo not drawn) [Example 65] | 32.2 | 345 | – | – | –
13 | CC(C)(C(=O)Nc1nc(-c2ccc(F)c3ccccc23)cs1)C1c2ccccc2Oc2nc(Cl)ccc21 (stereo not drawn) [Example 73] | 60.6 | 735 | – | – | –
14 | CC(C)(C(=O)Nc1nc(-c2cccc3ccccc23)cs1)C1c2ccccc2Oc2nc(Cl)ccc21 (stereo not drawn) [Example 74] | 71.2 | 319 | – | – | –
15 | COc1ccc(Cc2csc(NC(=O)C(C)(C)C3c4ccccc4Oc4nc(OC)ccc43)n2)cc1 (stereo not drawn) [Example 77] | 73.9 | 91.6 | – | – | –
16 | COc1ccc2c(n1)Oc1ccccc1C2C(C)(C)C(=O)Nc1nc(-c2ccc(F)c3ccccc23)cs1 (stereo not drawn) [Example 78] | 65.1 | 164 | – | – | –
17 | COc1ccc2c(n1)Oc1ccccc1C2C(C)(C)C(=O)Nc1nc(Cc2ccc(-c3ccncc3)cc2)cs1 (stereo not drawn) [Example 79] | 62.3 | 9.42 | – | – | –
18 | COc1cccc2c1Oc1ccccc1C2C(C)(C)C(=O)Nc1nc(-c2ccc(F)c3ccccc23)cs1 (stereo not drawn) [Example 82] | 72.6 | 126 | – | – | –
19 | COc1cccc2c1Oc1ccccc1C2C(C)(C)C(=O)Nc1nc(Cc2ccc(-c3ccncc3)cc2)cs1 (stereo not drawn) [Example 83] | 69.6 | 15 | – | – | –
20 | COc1ccc(Cc2csc(NC(=O)C(C)(C)C3c4ccccc4Oc4c(OCCN(C)C)cccc43)n2)cc1 (stereo not drawn) [Example 85] | 88.4 | – | – | – | –

Row | Structure (SMILES) | Emax [1] [%] | EC50 [2] [nM] | EC50 (Cellular Transrepression Assay) [nM] | AP-1 Max % inh (Cellular Transrepression Assay) (Cellular Transrepression Assay) [%] | EC50 (Cellular Transrepression Assay, listed as 166^a) [nM]
21 | Cc1cnc(NC(=O)C(C)(C)[C@H]2c3ccccc3Oc3cc(O)ccc32)s1 [Example 87] | 46 | 91.1 | – | – | –
22 | Cc1csc(NC(=O)C(C)(C)[C@H]2c3ccccc3Oc3cc(O)ccc32)n1 [Example 88] | 49.2 | 128 | – | – | –
23 | CC(C)(C(=O)Nc1nccs1)[C@H]1c2ccccc2Oc2cc(O)ccc21 [Example 89] | 68.3 | 18.1 | – | – | –
24 | CC(C)(C(=O)Nc1nncs1)[C@H]1c2ccccc2Oc2cc(O)ccc21 [Example 90] | 59.5 | 6.43 | – | – | –
25 | CC(C)(C(=O)Nc1nncs1)[C@@H]1c2ccccc2Oc2cc(O)ccc21 [Example 95] | 52.2 | 574 | – | – | –
26 | Cc1nnc(NC(=O)C(C)(C)C2c3ccccc3Oc3cc(O)ccc32)s1 (stereo not drawn) [Example 100] | 71.7 | 256 | – | – | –
27 | CN(C)C(=O)c1ccc(-c2ccc3c(c2)Oc2ccccc2C3C(C)(C)C(=O)Nc2nncs2)nc1 (stereo not drawn) [Example 102] | 45 | 58 | – | – | –
28 | CC(C)Oc1ccc(-c2ccc3c(c2)Oc2ccccc2C3C(C)(C)C(=O)Nc2nncs2)nc1 (stereo not drawn) [Example 105] | 30.5 | 12.2 | – | – | –
29 | CCc1cnc(-c2ccc3c(c2)Oc2ccccc2C3C(C)(C)C(=O)Nc2nncs2)nc1 (stereo not drawn) [Example 106] | 48.4 | 24.1 | – | – | –
30 | CC(C)Oc1cnc(-c2ccc3c(c2)Oc2ccccc2[C@@H]3C(C)(C)C(=O)Nc2nncs2)nc1 [Example 107] | 22.8 | 833 | – | – | –
31 | CN(C)C(=O)c1cnc(-c2ccc3c(c2)Oc2ccccc2C3C(C)(C)C(=O)Nc2nncs2)nc1 (stereo not drawn) [Example 109] | 60.2 | 182 | – | – | –
32 | CCc1cnc(-c2ccc3c(c2)Oc2ccccc2[C@H]3C(C)(C)C(=O)Nc2nncs2)nc1 [Example 110] | 35.7 | 183 | – | – | –
33 | CCc1cnc(-c2ccc3c(c2)Oc2ccccc2[C@@H]3C(C)(C)C(=O)Nc2nncs2)nc1 [Example 111] | 40.7 | 14.6 | – | – | –
34 | CC(C)(C(=O)Nc1nncs1)C1c2ccccc2Oc2cc(/C(N)=N\O)ccc21 (stereo not drawn) [Example 115] | 31.3 | 3.9 | – | – | –
35 | CC(C)(C(=O)Nc1nncs1)C1c2ccccc2Oc2cc(NC(=O)OCc3ccccc3)ccc21 (stereo not drawn) [Example 119] | 45.3 | 83 | – | – | –
36 | Cc1ccc(COC(=O)Nc2ccc3c(c2)Oc2ccccc2C3C(C)(C)C(=O)Nc2nncs2)cc1 (stereo not drawn) [Example 121] | 44.8 | 59.5 | – | – | –
37 | CC(C)(C(=O)Nc1nncs1)C1c2ccccc2Oc2cc(NC(=O)NC3CCCC3)ccc21 (stereo not drawn) [Example 125] | 33.2 | 94.3 | – | – | –
38 | CC(C)(C(=O)Nc1nncs1)C1c2ccccc2Oc2cc(-c3nn[nH]n3)ccc21 (stereo not drawn) [Example 126] | 30.8 | 49.7 | – | – | –
39 | COc1ccc(CNc2ccc3c(n2)Oc2ccccc2C3C(C)(C)C(=O)Nc2nncs2)cc1 (stereo not drawn) [Example 128] | 66.3 | 92 | – | – | –
40 | CC(C)(C(=O)Nc1nncs1)C1c2ccccc2Oc2nc(N3CCOCC3)ccc21 (stereo not drawn) [Example 129] | 39.5 | 307 | – | – | –

Row | Structure (SMILES) | Emax [1] [%] | EC50 [2] [nM] | EC50 (Cellular Transrepression Assay) [nM] | AP-1 Max % inh (Cellular Transrepression Assay) (Cellular Transrepression Assay) [%] | EC50 (Cellular Transrepression Assay, listed as 166^a) [nM]
41 | CC(C)(C(=O)Nc1nncs1)C1c2ccccc2Oc2nc(N3CCCC3)ccc21 (stereo not drawn) [Example 130] | 31.5 | 111 | – | – | –
42 | CN1CCN(c2ccc3c(n2)Oc2ccccc2C3C(C)(C)C(=O)Nc2nncs2)CC1 (stereo not drawn) [Example 131] | 45.6 | 970 | – | – | –
43 | CC(C)(C(=O)Nc1nncs1)C1c2ccccc2Oc2nc(N3CCCCC3)ccc21 (stereo not drawn) [Example 132] | 50.1 | 96 | – | – | –
44 | CC(C)(C(=O)Nc1nncs1)C1c2ccccc2Oc2nc(NCc3ccccc3)ccc21 (stereo not drawn) [Example 133] | 61.3 | 585 | – | – | –
45 | CC(C)(C(=O)Nc1nncs1)[C@H]1c2ccccc2Oc2nc(N3CCC4(CC3)OCCO4)ccc21 [Example 139] | 26.8 | 95.5 | – | – | –
46 | COc1ccc(CNc2ccc3c(n2)Oc2ccccc2[C@@H]3C(C)(C)C(=O)Nc2nncs2)cc1 [Example 140] | 64.1 | 93.7 | – | – | –
47 | CC(C)(C(=O)Nc1nncs1)[C@H]1c2ccccc2Oc2nc(N3CCCC3)ccc21 [Example 141] | 44.2 | 92.1 | – | – | –
48 | CC(C)(C(=O)Nc1nccs1)C1c2ccccc2Oc2nc(N3CCOCC3)ccc21 (stereo not drawn) [Example 154] | 46.2 | 236 | – | – | –
49 | CC(C)(C(=O)Nc1nccs1)C1c2ccccc2Oc2nc(N)ccc21 (stereo not drawn) [Example 158] | 62.5 | 200 | – | – | –
50 | CC(C)(C(=O)Nc1nncs1)C1c2ccccc2Oc2nc(N)ccc21 (stereo not drawn) [Example 159] | 30.3 | 479 | – | – | –
51 | Cc1nnc(NC(=O)C(C)(C)C2c3ccc(-c4ccc(C(=O)N5CCOCC5)cc4)nc3Oc3c(F)cccc32)s1 (stereo not drawn) [Example 163] | 64.4 | 4.9 | – | – | –
52 | Cc1nsc(NC(=O)C(C)(C)C2c3ccc(-c4ccc(C(=O)N5CCOCC5)cc4)nc3Oc3c(F)cccc32)n1 (stereo not drawn) [Example 164] | 58 | 8.5 | – | – | –
53 | Cc1nnc(NC(=O)C(C)(C)C2c3ccc(-c4ccc(C(=O)N(C)C)c(F)c4)nc3Oc3c(F)cccc32)s1 (stereo not drawn) [Example 165] | 53.4 | 9.8 | – | – | –
54 | Cc1nnc(NC(=O)C(C)(C)C2c3ccc(-c4ccc(C(=O)N(C)C)cc4)nc3Oc3c(F)cccc32)s1 (stereo not drawn) [Example 166] | 56.1 | – | 43.4 | – | 14.5
55 | COc1ccc(-c2ccc3c(n2)Oc2ccccc2C3C(C)(C)C(=O)Nc2nncs2)cc1 (stereo not drawn) [Example 169] | – | – | 92.7 | 48.82 | –
56 | Cc1ccc(-c2ccc3c(n2)Oc2ccccc2C3C(C)(C)C(=O)Nc2nncs2)cc1 (stereo not drawn) [Example 170] | – | – | 182 | 44.12 | –
57 | CN(C)C(=O)c1ccc(-c2ccc3c(n2)Oc2ccccc2C3C(C)(C)C(=O)Nc2nncs2)cc1 (stereo not drawn) [Example 172] | – | – | 13.2 | 59.04 | –
58 | CC(C)(C(=O)Nc1nncs1)C1c2ccccc2Oc2nc(-c3ccc(OC(F)(F)F)cc3)ccc21 (stereo not drawn) [Example 173] | – | – | 82.5 | 44.82 | –
59 | CN(C)c1ccc(-c2ccc3c(n2)Oc2ccccc2C3C(C)(C)C(=O)Nc2nncs2)cc1 (stereo not drawn) [Example 176] | – | – | 118 | 43.54 | –
